According to PubChem BioAssay (NCI):
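In this assay, cells in 96-well plates receive the compound at five concentrations for 48 hours. Endpoints are linearly interpolated between the surrounding concentrations. GI50: concentration for 50% inhibition of growth. The concentration for full growth arrest is given as TGI.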

Assays:
Assay in all cases: NCI-60 cell line screen, 48 h
SW-620 colon = system: SW-620 colon
RPMI-8226 leukemia = system: RPMI-8226 leukemia
SF-268 CNS = system: SF-268 CNS
SR leukemia = system: SR leukemia
HS 578T breast = system: HS 578T breast
NCI-H23 lung = system: NCI-H23 lung
COLO 205 colon = system: COLO 205 colon
HCT-15 colon = system: HCT-15 colon
PC-3 prostate = system: PC-3 prostate
UACC-62 melanoma = system: UACC-62 melanoma

Compound	GI50 (SW-620 colon) [µM]	TGI (SW-620 colon) [µM]	GI50 (RPMI-8226 leukemia) [µM]	TGI (RPMI-8226 leukemia) [µM]	GI50 (SF-268 CNS) [µM]	TGI (SF-268 CNS) [µM]	GI50 (SR leukemia) [µM]	TGI (SR leukemia) [µM]	GI50 (HS 578T breast) [µM]	TGI (HS 578T breast) [µM]	GI50 (NCI-H23 lung) [µM]	TGI (NCI-H23 lung) [µM]	GI50 (COLO 205 colon) [µM]	TGI (COLO 205 colon) [µM]	GI50 (HCT-15 colon) [µM]	TGI (HCT-15 colon) [µM]	GI50 (PC-3 prostate) [µM]	TGI (PC-3 prostate) [µM]	TGI (UACC-62 melanoma) [µM]	GI50 (UACC-62 melanoma) [µM]
ClCCN(CCCl)c1ccc(OCc2ccccc2)cc1	6.46	65.8	3.79	36.5	2.07	22.5	0.395	15.5	15.7	69.4	4.88	36.6	12.1	32.4	5.11	84.1	5.28	> 100	–	–
O=[N+]([O-])c1cccc(C=NC23CC4CC(CC(C4)C2)C3)c1	–	> 100	–	–	–	> 100	–	–	–	–	–	> 100	–	> 100	–	> 100	–	–	> 100	–
CCOC(=O)c1sc(Nc2cc(Cl)ccc2Cl)nc1C	–	> 100	–	> 100	–	> 100	–	> 100	–	–	–	> 100	–	> 100	–	> 100	–	–	–	–
O=C([CH-]C(=O)c1ccccc1)c1ccccc1.O=C([CH-]C(=O)c1ccccc1)c1ccccc1.[CH2-]CCC.[CH2-]CCC.[Sn+4]	0.133	0.325	0.11	0.334	0.458	1.86	–	–	–	–	–	–	0.31	1.23	0.636	2.14	–	–	1.83	0.558
CC[C@H]1[C@@H](C)C=C[C@@H](C)N1S(=O)(=O)c1ccc(C)cc1	–	> 100	–	> 100	–	> 100	–	> 100	–	–	–	> 100	–	> 100	–	> 100	–	–	> 100	–
Cc1cc2c(=O)cc(-c3ccc(Cl)c(Cl)c3)oc2c(C(=O)O)c1C	–	> 100	–	> 100	–	> 100	–	–	–	–	–	> 100	–	> 100	–	> 100	–	–	> 100	–
COC(=O)CCC(=O)C(CC(=O)OC)C(=O)CCC(=O)NCCc1ccccc1 (centres undefined)	–	> 100	–	> 100	–	> 100	–	> 100	–	–	–	> 100	–	> 100	–	> 100	–	–	> 100	–
COc1ncnn2ccc(-c3cnc4nc(C)n(Cc5nnc(C(C)F)o5)c4c3)c12 (centres undefined)	0.0511	> 100	0.201	> 45.6	0.526	> 80.5	0.156	16	0.265	7.21	0.109	0.597	0.11	0.468	0.199	–	0.281	> 100	–	–
S=C1NC(c2ccccc2)=NC(Cc2ccccc2)(c2ccccc2)N1c1ccccc1 (centres undefined)	–	> 100	–	> 100	–	> 100	–	> 100	–	–	–	> 100	–	> 100	–	> 100	–	–	> 100	–
CCC(CO)COC(=O)/C=C/C(=O)OCC(CC)CO (centres undefined)	–	> 100	–	> 100	–	> 100	–	> 95.6	–	–	–	> 100	–	> 100	–	> 100	–	–	> 100	–
Cc1cc2c(=O)cc(-c3ccc(O)cc3)oc2c(C(=O)O)c1C	–	> 100	–	> 100	–	–	–	> 100	–	–	–	> 100	–	> 100	–	> 100	–	–	> 100	–
CN1C[C@@H]2CC(=O)CC[C@@H]2C[C@H]1C#N	–	> 100	–	> 100	–	> 100	–	–	–	–	–	–	–	–	–	> 100	–	–	> 100	–
Cc1ccc(S(=O)OC2c3ccccc3Cc3ccccc32)cc1 (centres undefined)	–	59.6	–	> 100	–	47.1	–	70.8	–	–	–	33.8	–	31.5	–	44.5	–	–	31.8	–
Cc1ccc([I+]c2ccc(C)cc2)cc1	3.94	> 100	1.16	50	7.49	> 100	–	–	24.8	> 100	2.03	93.4	6.93	95.2	59.5	> 100	6.73	> 100	> 100	8.86
Cc1cc2c(=O)cc(-c3ccc(Cl)cc3Cl)oc2c(C(=O)O)c1C	–	> 100	–	> 100	–	> 100	–	–	–	–	–	> 100	–	> 100	–	> 100	–	–	> 100	–
Cc1ccc(C)c(N2C(=O)C(=O)C(c3nc4ccccc4s3)C(=O)C2=O)c1	–	> 100	–	> 100	–	> 100	–	–	–	–	–	> 100	–	> 100	–	> 100	–	–	> 100	–
COC(=O)c1oc([N+](=O)[O-])c(-c2ccccc2)c1-c1ccccc1	–	> 100	–	> 100	–	> 100	–	–	–	–	–	> 100	–	> 100	–	–	–	–	> 100	–
Cn1cnc([N+](=O)[O-])c1Sc1nccn1-c1ccccc1	–	> 100	–	> 100	–	> 100	–	62.3	–	–	–	79.6	–	> 100	–	–	–	–	> 100	–
CC1=CC=C2C(C)(C)CC[C@@H]3OC(=O)[C@H]1[C@]23C	–	> 100	–	–	–	> 100	–	> 100	–	–	–	> 100	–	> 100	–	–	–	–	> 100	–
COC1OC(CO)C(O)C(NC(=O)N(C)N=O)C1O (centres undefined)	–	> 100	–	> 100	–	> 100	–	> 100	–	–	–	> 100	–	> 100	–	> 100	–	–	–	–
O=C1C2=C(c3ccccc31)C(c1ccccc1Cl)NC(=S)N2 (centres undefined)	–	> 100	–	> 100	–	> 100	–	–	–	–	–	> 100	–	> 100	–	> 100	–	–	> 100	–
Cc1cn2c(/C=N/NC3=NCCN3)c(-c3ccc(Cl)c([N+](=O)[O-])c3)nc2s1	0.941	2.46	1.27	> 50	–	–	–	–	1.5	3.97	5.62	27	1.43	> 50	–	–	1.65	4.56	1.98	0.933
C=CCC1=C2CCCCC2CCC1=O (centres undefined)	–	> 100	–	> 100	–	> 100	–	–	–	–	–	> 100	–	> 100	–	> 100	–	–	> 100	–
CC(=O)OC1C(COC(N)=O)OC(n2c(-c3ccc(C)cc3)cc(-c3ccccc3)c(C#N)c2=O)C(OC(C)=O)C1OC(C)=O (centres undefined)	–	> 100	–	> 100	–	> 100	–	> 100	–	–	–	> 100	–	> 100	–	> 100	–	–	> 100	–
CCCCN(CCCC)C(=O)C(=O)C(C(=O)C(=O)OC)c1nc2ccccc2o1 (centres undefined)	–	> 100	–	–	–	> 100	–	> 100	–	–	–	> 100	–	> 100	–	> 100	–	–	–	–
